From ChEMBL document CHEMBL4190355, “Allosteric Modulators of the M4 Muscarinic Acetylcholine Receptor” (ACS Med Chem Lett, 2017)

What follows are molecules tested against T1, Muscarinic acetylcholine receptor M4 (Homo sapiens) (UniProt P08173) (assay: Positive allosteric modulation of human muscarinic acetylcholine receptor M4 expressed in CHOK1 cells assessed as increase in acetylcholine-induced […] preincubated for 4 mins followed by acetylcholine addition measured for 3.5 mins by FLIPR assay).
T1 sequence (whole entry): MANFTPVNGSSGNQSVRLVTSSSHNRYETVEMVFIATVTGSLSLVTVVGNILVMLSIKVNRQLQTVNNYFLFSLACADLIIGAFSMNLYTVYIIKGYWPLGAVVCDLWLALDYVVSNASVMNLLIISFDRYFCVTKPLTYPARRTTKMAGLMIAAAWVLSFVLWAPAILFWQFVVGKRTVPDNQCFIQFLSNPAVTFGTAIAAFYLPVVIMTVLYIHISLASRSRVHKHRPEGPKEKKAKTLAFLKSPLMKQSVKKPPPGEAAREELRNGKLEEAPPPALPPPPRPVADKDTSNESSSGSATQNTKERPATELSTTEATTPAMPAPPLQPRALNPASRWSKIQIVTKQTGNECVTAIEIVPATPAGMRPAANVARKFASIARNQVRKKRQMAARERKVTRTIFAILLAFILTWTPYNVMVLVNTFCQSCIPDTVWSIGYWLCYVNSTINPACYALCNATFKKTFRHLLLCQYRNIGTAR
Type: functional, cell-based

| SMILES | IP [µM] |
| --- | --- |
| Cc1cc2c(nc1N1CCC(OC[C@@]3(C)C[C@H]3C#N)CC1)CNC2=O | 30 |
| CCN1C(=O)c2c(nc(N3CCC(Oc4ccc5c(c4)COC5)CC3)c(C)c2C)[C@@H]1CO | 240 |
| CCOc1ccc(OC2CCN(c3nc4c(cc3C)C(=O)N(C)[C@H]4CO)CC2)cn1 | 8.62 |
| Cc1cc2c(nc1N1CCC(Oc3cnc4[nH]nc(C)c4c3)CC1)CNC2=O | 6.07 |
| COc1ccc(O[C@@H]2CCN(c3nc4c(cc3C)C(=O)N(C)[C@H]4CO)C[C@H]2F)cn1 | 8.06 |
| COCCOC1CCN(c2nc3c(cc2C)C(=O)NC3)CC1 | 11.2 |

Other lines, results leading:

| IP [µM] | SMILES |
| --- | --- |
| 11.3 | Cc1cc2c(nc1N1CCC(OC3CCOC3)CC1)CNC2=O (centres undefined) |
| 30 | COc1ccc(O[C@H]2CCN(c3nc4c(cc3C)C(=O)NC4)C[C@H]2C)cn1 |
| 30 | Cc1cc2c(nc1N1CCC(Oc3ccc4c(n3)COC4)CC1)[C@H](CO)N(C)C2=O |
